In patent US5767236A, “Linear therapeutic peptides” (Biomeasure, Inc., priority 1995, dated 1998):
Non-standard residues stand in square brackets, D forms with d. Residues, ends and D or L forms follow the SMILES beside them. *: point of attachment. Propionyl = CCC(=O)*

Experiments:
[1] = system: 13762NF rat mammary tumor; assay: Subcutaneous tumor assay, 13762NF breast tumor; assay type: in vivo; conditions: 13762NF in Fischer 344 strain rats; rat breast tumors tested at 400 Ag/injection, s.c., b.i.d.
Experimental: (§1) Treatment of tumors induced by subcutaneous implantation of in vitro maintained cell cultures was initiated only when well established as progressively growing tumors in the first transplant generation from in vitro culture. "No takes" were culled and animals with tumors of similar size were carefully randomized into control and test groups.
(§2) Analogues were tested against all tumor systems except SCLC's and NSCLC's at a screening dose of 100 μg/injection, s.c., in the flank opposite from the tumor, b.i.d. Lung tumors (SCLC and NSCLC) were tested at 250 μg/injection, s.c., b.i.d. Rat breast tumors were tested at 400 Ag/injection, s.c., b.i.d., an equivalent extrapolation from the mouse dose.
(§3) In vivo transplantation established tumor systems were implanted s.c. as a 1-2 mm^3 mince of tumor tissue. Treatment was initiated within 2 to 3 days of implantation.
(§4) Tumor weights (mgs) from tumor dimensions (mm×mm) were calculated following the formula of a prolate ellipsoid: […]
(§5) L×W^2 /2, where L is the longer of the two measurements.
(§6) Tumor measurements were determined with a vernier caliper three times/week.
13762NF Estrogen insensitive rat mammary tumor transplantable in
Fischer 344 strain rats.

[2] = system: AT-3 carcinoma of the rat prostate; assay: Subcutaneous tumor assay, AT-3 prostate tumor; assay type: in vivo; conditions: AT-3, s.c. xenografts in athymic nudes, 100 μg/injection, b.i.d.
Experimental: as §1, §2, §3, §4, §5, §6
AT-3 Androgen resistant, undifferentiated fast growing
carcinoma of the rat prostate. A subline of R-3327-H.
Tested as subcutaneous xenografts in athymic nudes.

[3] = system: 2PR121D(1)/R adenocarcinoma of the rat prostate; assay: Subcutaneous tumor assay, 2PR121D(1)/R prostate tumor; assay type: in vivo; conditions: s.c. tumors in Nb strain rats, 100 μg/injection, b.i.d.
Experimental: as §1, §2, §3, §4, §5, §6
Androgen resistant, poorly
differentiated adenocarcinoma
of the rate prostate derived as an androgen resistant
subline of 2PR121D(1)/S. Tested as subcutaneous tumors

[4] = system: different human and animal tumors; assay: Assay on inhibition of tumor growth, overall statement; assay type: in vivo; conditions: summary of Table 3; inhibitory activity when Percent Test/Control < 80% T/C
Experimental: as §1, §2, §3, §4, §5, §6

[5] = system: NCI-H345 human small cell lung cancer (SCLC); assay: Subcutaneous tumor assay, NCI-H345 lung tumor; assay type: in vivo
Experimental: as §1, §2, §3, §4, §5, §6
An in vitro maintained human small cell lung cancer
(SCLC) graciously prided by Dr. A. Gazdar. Cell
agglomerates produce slow, progressively growing tumors
in approximately 80% of athymic nude mice
when implanted subcutaneously. Tested as
well established subcutaneous
xenografts in athymic nudes.

[6] = system: 11095 squamous cell carcinoma of the rat prostate; assay: Subcutaneous tumor assay, 11095 prostate tumor; assay type: in vivo; conditions: 11095, s.c. xenografts in athymic nudes, 100 μg/injection, b.i.d.
Experimental: as §1, §2, §3, §4, §5, §6
11095 Androgen insensitive, squamous cell carcinoma of the rat
prostate. Originating and transplantable in Fischer 344
strain rats. Tested as subcutaneous xenografts in […]

[7] = system: M7806 hepatoma; assay: Subcutaneous tumor assay, M7806 hepatoma; assay type: in vivo, rat; conditions: 100 μg/injection, s.c., b.i.d.
Experimental: as §1, §2, §3, §4, §5, §6

[8] = system: CX-5 colon tumor; assay: Subcutaneous tumor assay, CX-5 colon tumor; assay type: in vivo, human; conditions: 100 μg/injection, s.c., b.i.d.
Experimental: as §1, §2, §3, §4, §5, §6
GOB-G Moderately differentiated adenocarcinoma, human, tested
as xenografts in athymic nude females.

[9] = system: CX-1 colon tumor; assay: Subcutaneous tumor assay, CX-1 colon tumor; assay type: in vivo, human; conditions: 100 μg/injection, s.c., b.i.d.
Experimental: as §1, §2, §3, §4, §5, §6
CZ-1 Mucinous adenocarcinoma, human, tested as xenografts in […]

[10] = system: A-549 human non-small cell lung cancer (NSCLC); assay: Subcutaneous tumor assay, A-549 lung tumor; assay type: in vivo
Experimental: as §1, §2, §3, §4, §5, §6
A-549 An in vitro maintained human non-small cell lung cancer
(NSCLC) obtained from the American Type Culture
Collection repository. Implanted s.c. as a cell
suspension and resultant tumors treated when tumors were […]

[11] = target: T1, GRP receptor (Rattus norvegicus, UniProt P52500); assay: Assay on binding to GRP receptor ([125I-Tyr4]bombesin displacement, AR42J cell membranes); conditions: rat AR42J cell membranes, [125I-Tyr4]bombesin, 30 min, 4° C.; read-out: IC50, affinity binding for the GRP receptors
T1 construct: endogenous in cells; host or cells: rat AR42J pancreatic acinar cells (membrane preparation)
T1 sequence (P52500 whole entry): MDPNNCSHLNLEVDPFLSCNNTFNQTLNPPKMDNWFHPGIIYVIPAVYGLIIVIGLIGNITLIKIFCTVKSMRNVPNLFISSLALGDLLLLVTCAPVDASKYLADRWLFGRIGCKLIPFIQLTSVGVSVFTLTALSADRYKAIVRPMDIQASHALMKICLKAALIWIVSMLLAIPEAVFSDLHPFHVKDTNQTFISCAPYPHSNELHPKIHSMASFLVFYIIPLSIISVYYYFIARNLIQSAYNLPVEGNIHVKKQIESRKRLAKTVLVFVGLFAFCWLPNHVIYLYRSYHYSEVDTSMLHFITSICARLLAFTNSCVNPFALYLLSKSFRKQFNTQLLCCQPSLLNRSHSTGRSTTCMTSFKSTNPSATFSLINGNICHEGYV
Experimental: Rat AR42J pancreatic acinar cells were cultured in Dulbecco's modified Eagle's medium without antibiotics and supplemented with 10% (vol/vol) fetal calf serum. The incubation atmosphere consisted of 10% C)2 -90% humidified air at 37° C.
Membranes for the bombesin receptor binding assay were obtained by homogenizing AR42J cells (Polytron, setting 6, 15 sec) in ice-cold 50 mM Tris-HCl (Buffer A) and centrifuging twice at 39,000× g (10 min), with an intermediate resuspension in fresh buffer. The final pellets were resuspended in 50 mM Tris-HCl, containing 0.1 mg/ml bacitracin, and 0.1% BSA (Buffer B), and held on ice for the receptor binding assay.
For assay, aliquots (0.4 ml) were incubated with 0.05 ml [^125 I-Tyr^4 ] bombesin (~2200 Ci/mmol, New England Nuclear) and Buffer B, with and without 0.05 ml of unlabeled competing analogs. After a 30 min incubation (4° C.), the bound [^125 I-Tyr^4 ] bombesin was separated from the free by rapid filtration through GF/B filters which had been previously soaked in 0.1% polyethyleneimine. The filters were then washed three times with 5 ml aliquots of ice-cold Buffer A. Specific binding was defined as the total [^125 I-Tyr^4 ] bombesin bound minus that bound in the presence of 1 μM unlabeled bombesin.

[12] = system: MT/W9Q-S breast tumor; assay: Subcutaneous tumor assay, MT/W9Q-S breast tumor; assay type: in vivo; conditions: rat breast tumors tested at 400 Ag/injection, s.c., b.i.d.
Experimental: as §1, §2, §3, §4, §5, §6

[13] = system: M5123 hepatoma; assay: Subcutaneous tumor assay, M5123 hepatoma; assay type: in vivo, rat; conditions: 100 μg/injection, s.c., b.i.d.
Experimental: as §1, §2, §3, §4, §5, §6

[14] = system: M7777 hepatoma; assay: Subcutaneous tumor assay, M7777 hepatoma; assay type: in vivo, rat; conditions: 100 μg/injection, s.c., b.i.d.
Experimental: as §1, §2, §3, §4, §5, §6

[15] = system: MX-1 human mammary carcinoma; assay: Subcutaneous tumor assay, MX-1 breast tumor; assay type: in vivo; conditions: MX-1, s.c. xenografts in athymic nude females, 100 μg/injection, b.i.d.
Experimental: as §1, §2, §3, §4, §5, §6
MX-1 Estrogen independent, human poorly
carcinoma. Tested as subcutaneous xenografts in athymic

SMILES: CC(C)C[C@H](NC(=O)[C@H](CC(C)C)NC(=O)[C@H](Cc1c[nH]cn1)NC(=O)CNC(=O)[C@@H](NC(=O)[C@H](C)NC(=O)[C@H](Cc1c[nH]c2ccccc12)NC(=O)[C@H](CCC(N)=O)NC(=O)[C@H](N)Cc1ccccc1)C(C)C)C(N)=O [BIM-26187, H-D-Phe-Gln-Trp-Ala-Val-Gly-His-Leu-Leu-NH2]
- Percent Test/Control (tumor weight) [1]: 70%
- Percent Test/Control (tumor weight) [2]: 36%
- Percent Test/Control (tumor weight) [3]: 70%
- inhibition of the growth of different human and animal tumors [4]: capable of inhibiting the growth
- Percent Test/Control (tumor weight) ([5]; NCI-H345 SCLC, s.c. xenografts in athymic nudes, 250 μg/injection, s.c., b.i.d.): 66%
- Percent Test/Control (tumor weight) [6]: 50%
- Percent Test/Control (tumor weight) [7]: 83%
- Percent Test/Control (tumor weight) [8]: 83%
- Percent Test/Control (tumor weight) [9]: 31%
- Percent Test/Control (tumor weight) ([10]; A-549 NSCLC, implanted s.c., 250 μg/injection, s.c., b.i.d.): 63%
- growth inhibitory effect on non-small cell lung carcinoma (NSCLC) ([10]; FIG. 2): capable of inhibiting
- IC50 [11]: 5 nM
- Percent Test/Control (tumor weight) [12]: 45%
- Percent Test/Control (tumor weight) [13]: 62%
- Percent Test/Control (tumor weight) [14]: 67%
- Percent Test/Control (tumor weight) [15]: 78%

SMILES: CSCC[C@H](NC(=O)[C@H](CC(C)C)NC(=O)[C@H](Cc1c[nH]cn1)NC(=O)CNC(=O)[C@@H](NC(=O)[C@H](C)NC(=O)[C@H](Cc1c[nH]c2ccccc12)NC(=O)[C@H](CCC(N)=O)NC(=O)[C@H](N)Cc1ccccc1)C(C)C)C(N)=O [BIM-26218, H-D-Phe-Gln-Trp-Ala-Val-Gly-His-Leu-Met-NH2]
- inhibition of the growth of different human and animal tumors [4]: capable of inhibiting the growth
- Percent Test/Control (tumor weight) [13]: 70%

SMILES: CCCC[C@H](NC(=O)[C@H](Cc1ccccc1)NC(=O)[C@H](Cc1c[nH]cn1)NC(=O)CNC(=O)[C@@H](NC(=O)[C@H](C)NC(=O)[C@H](Cc1c[nH]c2ccccc12)NC(=O)[C@H](CCC(N)=O)NC(=O)[C@H](N)Cc1ccccc1)C(C)C)C(N)=O [BIM-26224, H-D-Phe-Gln-Trp-Ala-Val-Gly-His-Phe-Nle-NH2]
- growth inhibitory effect on small cell lung carcinoma (SCLC) ([5]; FIG. 1): capable of inhibiting
- IC50 [11]: 0.7 nM

SMILES: CC(=O)N[C@@H](Cc1c[nH]cn1)C(=O)N[C@@H](Cc1c[nH]c2ccccc12)C(=O)N[C@@H](C)C(=O)N[C@H](C(=O)NCC(=O)N[C@@H](Cc1c[nH]cn1)C(=O)N[C@@H](CC(C)C)C(=O)N[C@@H](CC(C)C)C(N)=O)C(C)C [BIM-26225, Acetyl-His-Trp-Ala-Val-Gly-His-Leu-Leu-NH2] (Ac-HWAVGHLL-NH2)
- inhibition of the growth of different human and animal tumors [4]: capable of inhibiting the growth
- Percent Test/Control (tumor weight) [14]: 52%

SMILES: CCC(=O)N[C@@H](Cc1c[nH]cn1)C(=O)N[C@@H](Cc1c[nH]c2ccccc12)C(=O)N[C@@H](C)C(=O)N[C@H](C(=O)N[C@H](C)C(=O)N[C@@H](Cc1c[nH]cn1)C(=O)N[C@@H](CC(C)C)C(=O)N[C@@H](CC(C)C)C(N)=O)C(C)C [BIM-26247, Propionyl-His-Trp-Ala-Val-D-Ala-His-Leu-Leu-NH2] (Propionyl-HWAV[dA]HLL-NH2)
- inhibition of the growth of different human and animal tumors [4]: capable of inhibiting the growth
- Percent Test/Control (tumor weight) [8]: 54%

SMILES: CSCC[C@H](NC(=O)[C@H](Cc1ccccc1)NC(=O)[C@H](Cc1c[nH]cn1)NC(=O)CNC(=O)[C@@H](NC(=O)[C@H](C)NC(=O)[C@H](Cc1c[nH]c2ccccc12)NC(=O)[C@H](CCC(N)=O)NC(=O)[C@H](N)Cc1ccccc1)C(C)C)C(N)=O [BIM-26269, H--D-Phe--Gln--Trp--Ala--Val--Gly--His--Phe--Met--NH2]
- IC50 [11]: 1.4 nM
